For one assay, the system named is P0 pups. Put plainly: LH and T measurement in P0 mice. It is filed as in vivo, mouse. The conditions noted are these: prenatal GnRH antagonist administration with AMH. Here is the method: FIGS. 4A-4C-2. Prenatal AMH treatment increases perinatal T levels in females and masculinizes their brain. (FIG. 4A) Plasma T and LH levels were measured in pups 2 hours after birth (males, n=5; control females, n=5; PAMH females, n=4; PAMH females+GnRH antag, n=6). (FIG. 4B) TH immunoreactive (-ir) neurons in the AVPV were quantified in these animal groups (n=3 per sex and treatment). The number of AVPV TH-ir neurons are represented as the mean±s.e.m. (One-way ANOVA and Tukey's multiple comparisons post-hoc test, F(2,6)=231.1, ***P<0.0001). In FIG. 4B: left bar: male; middle bar: control female; right bar: PAMH female. (FIGS. 4C-1, 4C-2)
For the analysis of circulating LH and T levels, animals were decapitated and trunk blood from adult (P60) animals and P0 pups (1-2 hrs after birth) were collected in sterile Eppendorf tubes and left on ice until centrifugation. Plasma was collected and stored at −80° C. until use. LH levels were determined by a sandwich ELISA, as described previously (Vidal et al., 2012, PloS one, Vol. 7: e39001), using the mouse LH-RP reference provided by A. F. Parlow (National Hormone and Pituitary Program, Torrance, CA). Plasma T levels were analyzed using a commercial ELISA (Demeditec Diagnostics, GmnH, DEV9911) (Moore et al., 2015, Proc Natl Acad Sci USA, Vol. 112: 596-601) according to the manufacturers' instructions. […]

Another assay concerns PAMH mice. Put plainly: Postnatal GnRH antagonist treatment in PAMH mice: estrous cyclicity, ovaries, hormone levels. In kind it is in vivo, mouse. Here is the method: FIG. 6A-6G. Postnatal GnRH antagonist treatment of PAMH mice restores the PCOS-like neuroendocrine phenotype. (FIG. 6A) Schematic of experimental design whereby vaginal cytology (estrous cyclicity) in PAMH adult (P60-P90, n=5) was analyzed for 12 days before and after postnatal intraperitoneal (i.p.) injections with 0.5 mg Kg^−1 cetrorelix acetate (PAMH+GnRH antag). Injections were administered every 2 days over 12 days and, on the first diestrus at the end of the treatment, trunk blood was collected for hormonal analysis. (FIG. 6B) Representation of estrous cyclicity of a female PAMH mouse before postnatal GnRH antagonist treatment (no treatment) and during postnatal GnRH antagonist treatment (PAMH+GnRH antag). Days of treatment are denoted by arrows. (FIG. 6C) Quantitative analysis of the % of completed estrous cycles in control (prenatal PBS-treated, n=19), PAMH (prenatal AMH-treated, n=19), and PAMH mice postnatally treated with GnRH antagonist (PAMH+GnRH antag, n=5). The horizontal line in each scatter plot corresponds to the median value. The vertical line represents the 25th-75th percentile range. Comparisons between treatment groups were performed using Kruskal-Wallis test followed by Dunn's post hoc analysis test (control vs PAMH ***P<0.0001; control vs PAMH+GnRH antag, P>0.999; PAMH vs PAMH+GnRH antag, *P=0.015). (FIG. 6D) Scatter plot representing the percentage (%) of time spent in each estrous cycle. The horizontal line in each scatter plot corresponds to the median value. The vertical line represents the 25th-75th percentile range. The percentage (%) of time spent in each estrous cycle was quantified in control, PAMH and PAMH+GnRH antag animals groups, as described above. Comparisons between treatment groups were performed using Kruskal-Wallis test followed by Dunn's post hoc analysis test (M/D: control vs PAMH ***P<0.0001; control vs PAMH+GnRH antag, P>0.999; PAMH vs PAMH+GnRH antag, *P=0.0051; E: control vs PAMH ***P<0.0001; control vs PAMH+GnRH antag, P>0.999; PAMH vs PAMH+GnRH antag, *P=0.014; P: control vs PAMH ***P<0.0001; control vs PAMH+GnRH antag, P>0.999; PAMH vs PAMH+GnRH antag, **P=0.0007). In FIG. 6D, (●): control; light grey point: PAMH; “○”: PAMH+GnRH antagonist. (FIG. 6E) Representative photomicrographs of ovaries from adult (P60-P90) control, PAMH and PAMH+GnRH antag mice. Ovary sections (5 μm thick) were stained with haematoxylin-eosin. (FIG. 6F) Mean T levels were measured in diestrus adult control (n=7), PAMH (n=5) and PAMH+GnRH antag (n=5) animals. Comparisons between treatment groups were performed using One-way ANOVA and Tukey's multiple comparisons post-hoc test, F (2,14)=29.24, ***P<0.0001. (FIG. 6G) Mean LH levels were measured in diestrus adult control (n=9), PAMH (n=10) and PAMH+GnRH antag (n=5) animals. Comparisons between treatment groups were performed using One-way ANOVA and Tukey's multiple comparisons post-hoc test, F(2,21)=65.78, ***P<0.0001. Abbreviations: M/D, Metestrus/Diestrus; E, Estrus; P, Proestrus; A, atretic follicles; CL, corpora lutea; AF, antral follcicles.
(FIG. 10A) Schematic of experimental design whereby vaginal cytology (estrous cyclicity) in PAMH adult mice (P90, n=6) was analyzed during 3 months, before and after postnatal intraperitoneal (i.p.) injections with 0.05, 0.5 and 5 mg/Kg Cetrorelix acetate. The Y axis refers to the different stages of the estrous cycle: Metaestrus/Diestrus (M/D), Estrus (E) and Proestrus (P). The X axis represents the time-course of the experiments (days). Animals were injected i.p. every second day, for 12 days, with Cetrorelix acetate at the dose of 0.05 and 0.5 mg/Kg, and every day with Cetrorelix acetate at the dose of 5 mg/Kg. Tail-blood samples were collected for LH measurements twice before the beginning of the treatments, and at day 2 and 6 of each treatment as well as 4 days after the last injection (no treatment), that followed each administration period. […]

The mark [1] stands for this setting: 0.5 mg/Kg i.p. every second day for 12 days.

Where a SMILES comes first, the peptide text is derived from it. [ ]: non-standard residue; d: D form. dPhe(4-Cl) = N[C@H](Cc1ccc(Cl)cc1)C(=O)O; d2Nal = N[C@H](Cc1ccc2ccccc2c1)C(=O)O; dCit = NC(=O)NCCC[C@@H](N)C(=O)O; d3Pal = N[C@H](Cc1cccnc1)C(=O)O

As for `CC(=O)N[C@H](Cc1ccc2ccccc2c1)C(=O)N[C@H](Cc1ccc(Cl)cc1)C(=O)N[C@H](Cc1cccnc1)C(=O)N[C@@H](CO)C(=O)N[C@@H](Cc1ccc(O)cc1)C(=O)N[C@H](CCCNC(N)=O)C(=O)N[C@@H](CC(C)C)C(=O)N[C@@H](CCCNC(=N)N)C(=O)N1CCC[C@H]1C(=O)N[C@H](C)C(N)=O` [Cetrorelix acetate, Ac-D-2Nal-D-Phe(4-Cl)-D-3Pal-Ser-Tyr-D-Cit-Leu-Arg-Pro-D-Ala-NH2] (Ac-[d2Nal][dPhe(4-Cl)][d3Pal]SY[dCit]LRP[dA]-NH2), in the assay on P0 pups, the “neonatal T and LH surges of PAMH female pups” value is recorded as “corrected”. In the assay on PAMH mice (0.05 mg/Kg i.p. every second day), the “serum LH levels of PAMH mice” value is listed as “significantly more elevated than in Control animals”. Besides, in the assay with PAMH mice (0.5 mg/Kg every second day, diestrus, end of treatment), the “LH pulsatility in PAMH animals” value is reported as “normalized the LH pulsatility”. In addition, in the assay with PAMH mice (setting [1]), the “LH levels of PAMH mice” value was “normalized” and the “estrous cyclicity of PAMH mice” value is reported as “restored”. Besides, the “T levels of PAMH mice” value in the assay on PAMH mice (0.5 mg/Kg i.p. every second day for 12 days, diestrus) is “normalized”. Moreover, the “ovarian morphology of PAMH mice” value with PAMH mice (0.5 mg/Kg i.p. every two days for 12 days) was “restored”. Further, in the assay on PAMH mice (0.5 mg/Kg injected every 48 hours), the “ovulation in PAMH animals” value was “restored ovulation”. The “serum LH levels of PAMH mice” value in the assay with PAMH mice (5 mg/Kg i.p. daily) is “significantly suppressed”. Besides, the “reversibility of effects on LH secretion” value with PAMH mice (after discontinuation of treatment, independently of dose) was “reversible a few days after discontinuation of treatment”.

(Values after US12208130B2, “Treatment of women affected with polycystic ovary syndrome” (INSTITUT NATIONAL DE LA SANTE ET DE LA RECHERCHE MEDICALE …, priority 2017, dated 2025).)
